How the values were obtained:
[1] = tested on: nuclear β-catenin in C2C12 cells; experiment: cells; type: cell-based; conditions: concentration response; for WntCondMedia_bCatenin C2C12 IC50/EC50: assay number 5
hKDR = biological target: T1, hKDR (Homo sapiens, UniProt P35968); experiment: Cerep LANCE kinase assay hKDR (S1 assay 32); type: biochemical; conditions: for hKDR LANCE IC50/EC50: assay number 32
T1 construct: purchased Cerep (LANCE kinase assay platform, contract assay)

hJAK2 = biological target: T2, hJAK2 (Homo sapiens, UniProt O60674); experiment: Cerep LANCE kinase assay hJAK2 (S1 assay 33); type: biochemical; conditions: for hJAK2 LANCE IC50/EC50: assay number 33
T2 construct: purchased Cerep (LANCE kinase assay platform, contract assay)

HeLa cells = experiment: cells; type: cell-based; conditions: for Hela CellCycMod PI 2N IC50/EC50: assay number 14; for Hela CellCycMod PI 4N IC50/EC50: assay number 16; for Hela CellCycMod PI MI IC50/EC50: assay number 17; for Hela CellCycMod PI Cell Number IC50/EC50: assay number 18; for Hela CellCycMod PI S Phase IC50/EC50: assay number 15
[2] = tested on: alkaline phosphatase (ALP) activity in C2C12 cells; type: cell-based; conditions: concentration response; for WntCondMedia_Alk Phos C2C12 IC50/EC50: assay number 6
hp70S6K1 (RPS6KB1) = biological target: T3, hp70S6K1 (RPS6KB1) (Homo sapiens, UniProt P23443); experiment: Cerep LANCE kinase assay hp70S6K1 (S1 assay 31); type: biochemical; conditions: for hp70S6K1 LANCE IC50/EC50: assay number 31
T3 construct: purchased Cerep (LANCE kinase assay platform, contract assay)

hFLT3 = biological target: T4, hFLT3 (Homo sapiens, UniProt P36888); experiment: Cerep LANCE kinase assay hFLT3 (S1 assay 35); type: biochemical; conditions: for hFLT3 LANCE IC50/EC50: assay number 35
T4 construct: purchased Cerep (LANCE kinase assay platform, contract assay)

hGSK3b = biological target: T5, hGSK3b (Homo sapiens, UniProt P49841); experiment: Cerep LANCE kinase assay hGSK3b (S1 assay 34); type: biochemical; conditions: for hGSK3b LANCE IC50/EC50: assay number 34
T5 construct: purchased Cerep (LANCE kinase assay platform, contract assay)

INS-1E cells = experiment: cells; type: cell-based, rat; conditions: 5 mM glucose;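 further: secreted insulin quantified by homogeneous immunoassay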
SW480 = experiment: cells; type: cell-based; conditions: basal; for Basal_Viability ATP SW480 IC50/EC50: assay number 24
Colo320 = experiment: cells; type: cell-based; conditions: basal; for Basal_Viability ATP Colo 320 IC50/EC50: assay number 27
[3] = tested on: HCT116 cells treated with a GSK3β inhibitor; experiment: cells; type: cell-based; conditions: for GSK3b inh pretreated_Viability ATP HCT116 IC50/EC50: assay number 26, GSK3b inhibitor pretreated
DLD-1 = experiment: cells; type: cell-based; conditions: basal; for Basal_Viability ATP DLD-1 IC50/EC50: assay number 23
HCT116 = experiment: cells; type: cell-based; conditions: basal
RKO = experiment: cells; type: cell-based; conditions: basal; for Basal_Viability ATP RKO IC50/EC50: assay number 29
SNU-C1 = experiment: cells; type: cell-based; conditions: basal; for Basal_Viability ATP SNU-C1 IC50/EC50: assay number 30
HT-29 = experiment: cells; type: cell-based; conditions: basal; for Basal_Viability ATP HT-29 IC50/EC50: assay number 28
[4] = tested on: ECFC/ADSC co-culture cell nuclei number
[5] = tested on: endothelial tube formation in co-cultures of ECFCs and ADSCs treated with VEGF; experiment: cells; type: cell-based, human

T2 sequence (O60674 whole entry): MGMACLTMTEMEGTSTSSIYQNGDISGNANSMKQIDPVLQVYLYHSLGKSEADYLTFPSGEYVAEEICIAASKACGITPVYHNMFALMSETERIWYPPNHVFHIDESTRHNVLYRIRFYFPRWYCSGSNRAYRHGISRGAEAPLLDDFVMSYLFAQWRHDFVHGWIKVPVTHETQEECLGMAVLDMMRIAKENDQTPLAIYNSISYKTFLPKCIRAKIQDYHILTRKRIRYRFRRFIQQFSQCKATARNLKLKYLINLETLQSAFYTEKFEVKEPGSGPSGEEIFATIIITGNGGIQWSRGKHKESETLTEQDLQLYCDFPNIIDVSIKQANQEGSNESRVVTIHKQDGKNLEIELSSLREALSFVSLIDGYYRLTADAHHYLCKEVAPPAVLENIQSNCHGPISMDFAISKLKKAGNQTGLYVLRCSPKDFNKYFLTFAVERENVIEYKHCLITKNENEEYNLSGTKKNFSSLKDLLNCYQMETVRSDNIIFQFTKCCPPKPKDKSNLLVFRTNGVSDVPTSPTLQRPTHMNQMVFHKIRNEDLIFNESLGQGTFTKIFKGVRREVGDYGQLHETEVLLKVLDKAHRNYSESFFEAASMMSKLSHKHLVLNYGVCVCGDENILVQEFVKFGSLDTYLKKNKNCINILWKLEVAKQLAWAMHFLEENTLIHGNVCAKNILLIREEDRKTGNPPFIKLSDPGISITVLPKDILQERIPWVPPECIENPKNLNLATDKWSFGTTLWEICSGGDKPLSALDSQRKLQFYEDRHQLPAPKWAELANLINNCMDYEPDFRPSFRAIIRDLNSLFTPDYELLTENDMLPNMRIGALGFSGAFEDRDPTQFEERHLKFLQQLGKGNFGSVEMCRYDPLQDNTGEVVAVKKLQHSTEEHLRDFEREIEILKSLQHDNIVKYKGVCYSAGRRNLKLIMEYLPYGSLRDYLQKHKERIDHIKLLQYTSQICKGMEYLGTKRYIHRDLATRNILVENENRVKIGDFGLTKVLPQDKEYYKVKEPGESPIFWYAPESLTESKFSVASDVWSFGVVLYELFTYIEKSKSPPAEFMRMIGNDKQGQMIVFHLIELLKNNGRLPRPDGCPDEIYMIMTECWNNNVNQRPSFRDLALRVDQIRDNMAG
T3 sequence (P23443 whole entry): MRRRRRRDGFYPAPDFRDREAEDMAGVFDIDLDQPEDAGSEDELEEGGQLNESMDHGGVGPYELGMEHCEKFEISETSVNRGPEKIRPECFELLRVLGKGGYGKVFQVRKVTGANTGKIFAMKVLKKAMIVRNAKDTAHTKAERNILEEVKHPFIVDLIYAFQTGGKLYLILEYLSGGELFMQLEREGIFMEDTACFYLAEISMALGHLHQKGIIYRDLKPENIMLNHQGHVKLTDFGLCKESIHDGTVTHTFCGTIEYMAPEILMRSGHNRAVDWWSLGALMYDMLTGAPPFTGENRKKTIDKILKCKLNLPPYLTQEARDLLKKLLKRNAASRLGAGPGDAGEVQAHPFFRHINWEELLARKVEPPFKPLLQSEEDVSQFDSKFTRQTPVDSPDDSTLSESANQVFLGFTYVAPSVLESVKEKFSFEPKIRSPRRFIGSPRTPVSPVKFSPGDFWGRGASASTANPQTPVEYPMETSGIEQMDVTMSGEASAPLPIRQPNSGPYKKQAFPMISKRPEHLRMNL
T5 sequence (P49841 whole entry): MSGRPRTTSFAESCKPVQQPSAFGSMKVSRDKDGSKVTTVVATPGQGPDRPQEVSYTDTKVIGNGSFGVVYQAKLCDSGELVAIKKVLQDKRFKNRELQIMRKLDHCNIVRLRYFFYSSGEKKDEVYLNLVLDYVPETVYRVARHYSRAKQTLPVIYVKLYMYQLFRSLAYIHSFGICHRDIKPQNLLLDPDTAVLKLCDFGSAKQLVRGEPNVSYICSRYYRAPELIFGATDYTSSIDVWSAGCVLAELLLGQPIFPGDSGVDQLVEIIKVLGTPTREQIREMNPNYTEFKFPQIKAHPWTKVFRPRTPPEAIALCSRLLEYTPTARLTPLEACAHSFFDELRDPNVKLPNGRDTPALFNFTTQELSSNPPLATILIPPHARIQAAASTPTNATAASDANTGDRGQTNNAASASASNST
T4 sequence (P36888 27-993): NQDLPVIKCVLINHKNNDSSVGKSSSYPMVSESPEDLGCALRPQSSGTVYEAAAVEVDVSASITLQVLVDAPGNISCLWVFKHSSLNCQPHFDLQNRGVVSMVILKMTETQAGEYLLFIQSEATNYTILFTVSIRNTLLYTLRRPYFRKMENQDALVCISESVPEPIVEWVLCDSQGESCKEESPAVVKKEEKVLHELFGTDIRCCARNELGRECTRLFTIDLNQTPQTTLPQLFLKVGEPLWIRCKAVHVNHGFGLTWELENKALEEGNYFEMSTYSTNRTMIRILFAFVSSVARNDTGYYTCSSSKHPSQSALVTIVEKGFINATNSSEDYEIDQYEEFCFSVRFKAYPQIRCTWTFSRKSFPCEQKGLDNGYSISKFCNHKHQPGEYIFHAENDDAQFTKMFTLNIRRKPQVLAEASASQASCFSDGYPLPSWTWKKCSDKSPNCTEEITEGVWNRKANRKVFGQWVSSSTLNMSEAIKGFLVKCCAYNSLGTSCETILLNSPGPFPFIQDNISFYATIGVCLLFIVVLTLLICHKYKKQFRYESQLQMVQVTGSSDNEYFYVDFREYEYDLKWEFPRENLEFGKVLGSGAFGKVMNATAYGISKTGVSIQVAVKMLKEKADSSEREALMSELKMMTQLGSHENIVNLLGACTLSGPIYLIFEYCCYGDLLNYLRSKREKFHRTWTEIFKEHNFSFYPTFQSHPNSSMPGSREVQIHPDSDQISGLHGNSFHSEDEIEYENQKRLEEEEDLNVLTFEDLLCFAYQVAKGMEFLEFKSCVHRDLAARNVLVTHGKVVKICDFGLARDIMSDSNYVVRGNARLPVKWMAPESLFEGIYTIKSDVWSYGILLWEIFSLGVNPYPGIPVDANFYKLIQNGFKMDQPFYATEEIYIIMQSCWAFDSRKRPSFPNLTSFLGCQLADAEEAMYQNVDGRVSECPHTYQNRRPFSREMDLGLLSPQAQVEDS
T1 sequence (P35968 20-1356): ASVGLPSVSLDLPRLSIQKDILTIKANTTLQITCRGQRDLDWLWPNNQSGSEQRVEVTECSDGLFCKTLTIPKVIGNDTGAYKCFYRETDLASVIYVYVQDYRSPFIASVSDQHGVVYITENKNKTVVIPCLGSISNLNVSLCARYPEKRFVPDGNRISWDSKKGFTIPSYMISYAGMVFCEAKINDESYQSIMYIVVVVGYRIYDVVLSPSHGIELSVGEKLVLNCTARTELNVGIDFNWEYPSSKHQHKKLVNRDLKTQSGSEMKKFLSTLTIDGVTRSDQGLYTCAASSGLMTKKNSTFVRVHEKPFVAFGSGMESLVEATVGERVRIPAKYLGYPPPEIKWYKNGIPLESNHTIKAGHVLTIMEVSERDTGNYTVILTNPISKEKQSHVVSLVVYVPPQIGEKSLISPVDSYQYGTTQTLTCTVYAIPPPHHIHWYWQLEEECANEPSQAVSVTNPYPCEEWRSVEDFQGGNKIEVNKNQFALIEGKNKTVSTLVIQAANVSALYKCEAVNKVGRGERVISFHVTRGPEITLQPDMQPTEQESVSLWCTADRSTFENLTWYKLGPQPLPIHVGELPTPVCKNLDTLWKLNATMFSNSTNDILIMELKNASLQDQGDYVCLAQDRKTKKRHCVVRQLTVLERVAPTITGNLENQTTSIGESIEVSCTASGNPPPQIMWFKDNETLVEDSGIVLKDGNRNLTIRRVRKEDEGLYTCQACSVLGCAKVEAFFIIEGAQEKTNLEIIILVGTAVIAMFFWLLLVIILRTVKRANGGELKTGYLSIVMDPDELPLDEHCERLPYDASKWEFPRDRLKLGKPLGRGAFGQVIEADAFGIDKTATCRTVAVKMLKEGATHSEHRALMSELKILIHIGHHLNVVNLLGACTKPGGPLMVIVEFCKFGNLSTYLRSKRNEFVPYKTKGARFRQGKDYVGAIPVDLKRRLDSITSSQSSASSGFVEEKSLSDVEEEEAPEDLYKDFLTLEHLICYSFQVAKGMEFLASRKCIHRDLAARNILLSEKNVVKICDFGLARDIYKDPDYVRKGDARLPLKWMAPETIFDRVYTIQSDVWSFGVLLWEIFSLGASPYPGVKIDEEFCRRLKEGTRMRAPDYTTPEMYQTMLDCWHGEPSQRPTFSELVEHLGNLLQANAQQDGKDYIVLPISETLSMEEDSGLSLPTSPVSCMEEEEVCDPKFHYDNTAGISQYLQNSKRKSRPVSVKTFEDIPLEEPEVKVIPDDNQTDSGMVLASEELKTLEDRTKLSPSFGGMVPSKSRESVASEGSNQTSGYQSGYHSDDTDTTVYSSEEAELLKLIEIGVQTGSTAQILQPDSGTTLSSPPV

SMILES | IC50/EC50, WntCondMedia_bCatenin C2C12 (assay number 5) [1] [µM] | IC50/EC50, Hela CellCycMod PI 2N (assay number 14) (HeLa cells) [µM] | IC50/EC50, Hela CellCycMod PI 4N (assay number 16) (HeLa cells) [µM] | IC50/EC50, Hela CellCycMod PI Cell Number (assay number 18) (HeLa cells) [µM] | IC50/EC50, Hela CellCycMod PI MI (assay number 17) (HeLa cells) [µM] | IC50/EC50, Hela CellCycMod PI S Phase (assay number 15) (HeLa cells) [µM] | IC50/EC50, WntCondMedia_Alk Phos C2C12 (assay number 6) [2] [µM] | WntCondMedia_bCatenin C2C12 IC50/EC50 [1] [µM] | Hela CellCycMod PI 2N IC50/EC50 (HeLa cells) [µM] | Hela CellCycMod PI 4N IC50/EC50 (HeLa cells) [µM] | Hela CellCycMod PI MI IC50/EC50 (HeLa cells) [µM] | Hela CellCycMod PI Cell Number IC50/EC50 (HeLa cells) [µM] | WntCondMedia_Alk Phos C2C12 IC50/EC50 [2] [µM] | Hela CellCycMod PI S Phase IC50/EC50 (HeLa cells) [µM] | VEGF_ADSC\ECFC Angio Hoechst NucArea IC50/EC50 [4] [µM] | VEGF_ADSC\ECFC Angio CD31 TubeArea IC50/EC50 [5] [µM] | Basal_Viability ATP Colo 320 IC50/EC50 (Colo320) [µM] | GSK3b inh pretreated_Viability ATP HCT116 IC50/EC50 [3] [µM] | Basal_Viability ATP RKO IC50/EC50 (RKO) [µM] | other results
CCc1nc(N)nc(N)c1-c1ccc(Cl)cc1 [NCGC00016256-17] | 0.86 | > 10 | > 10 | > 10 | > 10 | > 10 | 0.0677 |  |  |  |  |  |  |  |  |  |  |  |  | IC50/EC50, hKDR LANCE (assay number 32) (hKDR): > 20 µM; IC50/EC50, hJAK2 LANCE (assay number 33) (hJAK2): > 20 µM; IC50/EC50, hp70S6K1 LANCE (assay number 31) (hp70S6K1 (RPS6KB1)): > 20 µM; IC50/EC50, hFLT3 LANCE (assay number 35) (hFLT3): > 20 µM; IC50/EC50, hGSK3b LANCE (assay number 34) (hGSK3b): > 20 µM
CN1C[C@H](CNC(=O)OCc2ccccc2)C[C@@H]2c3cccc4c3c(cn4C)C[C@H]21 [NCGC00017257-14] | > 20 |  |  |  |  |  | > 20 |  |  |  |  |  |  |  |  |  |  |  |  | IC50/EC50, 5mMGluc_INS1E SecretionMod (assay number 8) (INS-1E cells): > 33.33 µM
C[n+]1c2cc(N)ccc2cc2ccc(N)cc21 [NCGC00178831-03] | > 20 | 3.3946 | > 10 | 0.4722 | 2.194 | 1.9618 | 1.5999 |  |  |  |  |  |  |  |  |  |  |  |  | IC50/EC50, hKDR LANCE (assay number 32) (hKDR): > 20 µM; IC50/EC50, hJAK2 LANCE (assay number 33) (hJAK2): > 20 µM; IC50/EC50, hp70S6K1 LANCE (assay number 31) (hp70S6K1 (RPS6KB1)): 6.57 µM; IC50/EC50, hFLT3 LANCE (assay number 35) (hFLT3): > 20 µM; IC50/EC50, hGSK3b LANCE (assay number 34) (hGSK3b): > 20 µM
NC(N)=NN=C(/C=C/c1ccc([N+](=O)[O-])o1)/C=C/c1ccc([N+](=O)[O-])o1 [NCGC00181330-02] | > 20 | > 10 | > 10 | > 10 | > 10 | > 10 | 0.372 |  |  |  |  |  |  |  |  |  |  |  |  | IC50/EC50, Basal_Viability ATP SW480 (assay number 24) (SW480): 0.0076 µM; IC50/EC50, Basal_Viability ATP Colo 320 (assay number 27) (Colo320): 0.003 µM; IC50/EC50, GSK3b inh pretreated_Viability ATP HCT116 (assay number 26) ([3]; GSK3b inh pretreated): 0.0237 µM; IC50/EC50, Basal_Viability ATP DLD-1 (assay number 23) (DLD-1): > 20 µM; IC50/EC50, Basal_Viability ATP HCT116 (assay number 25) (HCT116): 0.1357 µM; IC50/EC50, Basal_Viability ATP RKO (assay number 29) (RKO): 0.0128 µM; IC50/EC50, Basal_Viability ATP SNU-C1 (assay number 30) (SNU-C1): 1.3539 µM; IC50/EC50, Basal_Viability ATP HT-29 (assay number 28) (HT-29): 0.003 µM
CCCN(CCC)C(=O)C(CCC(=O)OCCCN1CCN(CCOC(=O)Cc2c(C)n(C(=O)c3ccc(Cl)cc3)c3ccc(OC)cc23)CC1)NC(=O)c1ccccc1 (stereo not drawn) [NCGC00183024-01] |  |  |  |  |  |  |  | > 20 | > 10 | > 10 | > 10 | 5.4844 | 13.2162 |  |  |  |  |  |  | hKDR LANCE IC50/EC50 (hKDR): > 20 µM; hJAK2 LANCE IC50/EC50 (hJAK2): > 20 µM; hp70S6K1 LANCE IC50/EC50 (hp70S6K1 (RPS6KB1)): > 20 µM; hFLT3 LANCE IC50/EC50 (hFLT3): > 20 µM; hGSK3b LANCE IC50/EC50 (hGSK3b): > 20 µM
COC(=O)[C@H]1[C@H]2C[C@@H]3c4[nH]c5cc(OC)ccc5c4CCN3C[C@H]2C[C@@H](OC(=O)/C=C/c2ccc(O)c(OC)c2)[C@@H]1OC [NCGC00253604-01] |  |  |  |  |  |  |  | > 20 | > 10 | > 10 | > 10 | > 10 | 10.4461 | > 10 |  |  |  |  |  | hKDR LANCE IC50/EC50 (hKDR): > 20 µM; hJAK2 LANCE IC50/EC50 (hJAK2): > 20 µM; hp70S6K1 LANCE IC50/EC50 (hp70S6K1 (RPS6KB1)): > 20 µM; hFLT3 LANCE IC50/EC50 (hFLT3): > 20 µM; hGSK3b LANCE IC50/EC50 (hGSK3b): > 20 µM
CCCCCCCCCCCCNCCNCCNCC(=O)O [NCGC00274269-01] |  |  |  |  |  |  |  | > 20 | > 10 | > 10 | > 10 | > 10 | > 20 | > 10 | > 10 | 6.0404 |  |  |  | 
COc1cccc2c1C(=O)c1c(O)c3c(c(O)c1C2=O)C[C@@](O)(C(=O)CO)CC3OC1CC(N2CCOC(OC)C2)C(O)C(C)O1 (stereo partly drawn) [NCGC00319019-01] |  |  |  |  |  |  |  | 0.0135 |  | > 10 | 0.01176 | 0.00468 | > 20 |  | 0.04422 | 0.003 | 0.001 | 0.001 | 0.001 | Basal_Viability ATP SW480 IC50/EC50 (SW480): 0.001 µM; Basal_Viability ATP DLD-1 IC50/EC50 (DLD-1): 0.001 µM
COc1cccc2c1C(=O)c1c(O)c3c(c(O)c1C2=O)C[C@@](O)(C(=O)CO)C[C@@H]3O[C@H]1C[C@H](N)[C@H](O[C@@H]2CCCCO2)[C@H](C)O1 [NCGC00344543-01] |  |  |  |  |  |  |  | > 20 | 0.0795 | 0.08063 | > 10 | 0.05143 | 3.9488 | 1.746 | 0.9949 | 0.0063 | 2.013 | 1.275 | 1.01 | Basal_Viability ATP SW480 IC50/EC50 (SW480): 7.822 µM; Basal_Viability ATP DLD-1 IC50/EC50 (DLD-1): 8.952 µM; Basal_Viability ATP HCT116 IC50/EC50 (HCT116; assay number 25): 0.9107 µM; Basal_Viability ATP SNU-C1 IC50/EC50 (SNU-C1): 9.2617 µM; Basal_Viability ATP HT-29 IC50/EC50 (HT-29): > 20 µM
CC[C@]1(O)C[C@@H]2CN(CCc3c([nH]c4ccccc34)[C@@](C(=O)OC)(c3cc4c(cc3OC)N(C)[C@H]3[C@@](O)(C(=O)OC)[C@H](OC(C)=O)[C@]5(CC)C=CCN6CC[C@]43[C@@H]65)C2)C1.O=S(=O)(O)O [NCGC00344583-01] |  |  |  |  |  |  |  | 0.0035 | 0.0048 | 0.00483 | 0.00452 | 0.00521 | > 20 | > 10 | > 10 | 0.0026 | 0.001 | 0.001 | 0.001 | Basal_Viability ATP SNU-C1 IC50/EC50 (SNU-C1): 0.001 µM; Basal_Viability ATP HT-29 IC50/EC50 (HT-29): 0.001 µM

Source: paper PMC4503722, “Novel Phenotypic Outcomes Identified for a Public Collection of Approved Drugs from a Publicly Accessible Panel of Assays” (PLoS ONE, 2015)
